Reference: article PMC3262391 (Clinical pharmacology : advances and applications, 2011)
Where two headings read alike, the source gives them in different places.

How the values were obtained:
[1] = format: in vivo, healthy subjects; details: for t½: mean (SD)
[2] = Diltiazem extended-release study: adverse events; format: in vivo, healthy subjects; details: for first-degree atrioventricular block, subjects: by treatment: diltiazem extended-release 360 mg alone, saxagliptin 10 mg + diltiazem extended-release 360 mg, saxagliptin 10 mg alone
CYP2C9 [3] = details: in vitro studies; cited from earlier work
[4] = Ketoconazole study: two-way pharmacokinetic interaction, plasma pharmacokinetics; format: in vivo, healthy subjects; details: for t½: mean (SD)
CYP2D6 = details: in vitro studies; cited from earlier work
[5] = Ketoconazole study: adverse events; format: in vivo, healthy subjects
[6] = Simvastatin study: two-way pharmacokinetic interaction, plasma pharmacokinetics; details: for decrease of Cmax by saxagliptin / increase of AUCτ by saxagliptin: saxagliptin 10 mg + simvastatin 40 mg relative to simvastatin alone
CYP2C9 [7] = details: in vitro studies; cited from earlier work; remark: listed apart in the source
P-glycoprotein = details: in vitro data; no reference given; cited from earlier work
CYP2C19 = details: in vitro studies; cited from earlier work
CYP3A4 [8] = details: in vitro studies; cited from earlier work
CYP3A4 [9] = details: in vitro studies; cited from earlier work; remark: listed apart in the source
[10] = excreted in urine; cited from earlier work
[11] = Simvastatin study: adverse events; format: in vivo, healthy subjects
CYP2E1 = details: in vitro studies; cited from earlier work
CYP2B6 [12] = details: in vitro studies; cited from earlier work
CYP1A2 [13] = details: in vitro studies; cited from earlier work
CYP2B6 [14] = details: in vitro studies; cited from earlier work; remark: listed apart in the source
DPP-4 = details: cited from earlier work
CYP2A6 = details: in vitro studies; cited from earlier work
CYP1A2 [15] = details: in vitro studies; cited from earlier work; remark: listed apart in the source
[16] = compared with saxagliptin alone
[17] = saxagliptin 10 mg + simvastatin 40 mg relative to saxagliptin alone
[18] = compared with saxagliptin 10 mg alone
[19] = saxagliptin 100 mg + ketoconazole 200 mg every 12 hours (day 9), geometric mean (CV%), n = 15
[20] = saxagliptin 100 mg administered alone (day 1), geometric mean (CV%), n = 15
[21] = saxagliptin 10 mg + diltiazem extended-release 360 mg (day 10), geometric mean (CV%), n = 12
[22] = saxagliptin 10 mg administered alone (day 1), geometric mean (CV%), n = 12
[23] = saxagliptin 100 mg + ketoconazole versus ketoconazole alone

SMILES: COc1ccc([C@@H]2Sc3ccccc3N(CCN(C)C)C(=O)[C@@H]2OC(C)=O)cc1 [Diltiazem, diltiazem, reference compound]
- AUC ([1]; human, plasma, oral, 360 mg): 3870 ng·h/mL
- Cmax ([1]; human, plasma, oral, 360 mg): 262 ng/mL
- Tmax ([1]; human, plasma, oral, 360 mg): 13 h
- first-degree atrioventricular block, subjects [2]: 42.9%
- subjects with first-degree atrioventricular block who discontinued the trial ([2]; diltiazem extended-release 360 mg alone, on day 5): two of these subjects
- adverse events reported (of thirteen in the study) ([2]; diltiazem extended-release 360 mg monotherapy): 12

SMILES: N#C[C@@H]1C[C@@H]2C[C@@H]2N1C(=O)[C@@H](N)C12CC3CC(CC(O)(C3)C1)C2 [Saxagliptin, saxagliptin, reference compound]
- induction of CYP2C9 (CYP2C9 [3]): do not induce
- increase of AUC0-t by ketoconazole [4, 16]: 148%
- increase of AUC∞ by ketoconazole [4, 16]: 145%
- increase of Cmax by ketoconazole [4, 16]: 62%
- AUC0-t ([4]; human, plasma, 100 mg): 1920 ng·h/mL
- AUC(0-inf) ([4]; human, plasma, 100 mg): 1970 ng·h/mL
- Cmax ([4]; human, plasma, 100 mg): 546 ng/mL
- Tmax ([4]; human, plasma, 100 mg): 1 h
- half-life ([4]; human, plasma, 100 mg): 2.37 h
- increase of mean t½ by ketoconazole ([4]; versus saxagliptin alone): 1.1 h
- inhibition of CYP2D6 (CYP2D6): neither saxagliptin nor 5-hydroxy saxagliptin inhibits
- serious adverse events or deaths ([5]; after coadministration of saxagliptin and ketoconazole): no serious adverse events or deaths
- AUC ([6]; human, in vivo, 10 mg): 153 ng·h/mL
- Cmax ([6]; human, in vivo, 10 mg): 44 ng/mL
- Tmax ([6]; human, in vivo, 10 mg): 1 h
- increase of AUCτ by simvastatin [6, 17]: 12%
- inhibition of CYP2C9 (CYP2C9 [7]): neither saxagliptin nor 5-hydroxy saxagliptin inhibits
- increase of AUC0-t by diltiazem extended-release [1, 18]: 113%
- increase of AUC∞ by diltiazem extended-release [1, 18]: 109%
- increase of Cmax by diltiazem extended-release [1, 18]: 63%
- AUC0-t ([1]; human, plasma, oral, 10 mg): 152 ng·h/mL
- AUC(0-inf) ([1]; human, plasma, oral, 10 mg): 158 ng·h/mL
- Cmax ([1]; human, plasma, oral, 10 mg): 53 ng/mL
- Tmax ([1]; human, plasma, oral, 10 mg): 0.5 h
- half-life ([1]; human, plasma, oral, 10 mg): 2.38 h
- increase of mean t½ by diltiazem extended-release ([1]; versus saxagliptin alone): 0.92 h
- substrate for the efflux transporter P-glycoprotein (P-glycoprotein): weak substrate
- inhibition of CYP2C19 (CYP2C19): neither saxagliptin nor 5-hydroxy saxagliptin inhibits
- induction of CYP3A4 (CYP3A4 [8]): do not induce
- inhibition of CYP3A4 (CYP3A4 [9]): neither saxagliptin nor 5-hydroxy saxagliptin inhibits
- serious adverse events or deaths ([2]; after coadministration of saxagliptin and diltiazem extended-release): no serious adverse events or deaths
- first-degree atrioventricular block, subjects [2]: in no subjects
- renal clearance [10]: approximately 230 mL/min
- serious adverse events or deaths ([11]; after coadministration of saxagliptin and simvastatin): no serious adverse events or deaths

SMILES: CCC(C)(C)C(=O)O[C@H]1C[C@@H](C)C=C2C=C[C@H](C)[C@H](CC[C@@H]3C[C@@H](O)CC(=O)O3)[C@H]21 [Simvastatin, simvastatin, reference compound]
- decrease of Cmax by saxagliptin [6]: 12%
- increase of AUCτ by saxagliptin [6]: 4%
- subjects discontinued due to mild upper respiratory tract infection ([11]; simvastatin 40-mg group, diagnosed on day 5, deemed possibly related to study drug): One subject

SMILES: N#C[C@@H]1C[C@@H]2C[C@@H]2N1C(=O)[C@@H](N)C12CC3CC(O)(CC(O)(C3)C1)C2 [5-Hydroxy saxagliptin, 5-hydroxy saxagliptin]
- inhibition of CYP2E1 (CYP2E1): neither saxagliptin nor 5-hydroxy saxagliptin inhibits
- induction of CYP2C9 (CYP2C9 [3]): do not induce
- inhibition of CYP2B6 (CYP2B6 [12]): neither saxagliptin nor 5-hydroxy saxagliptin inhibits
- decrease of AUC0-t by ketoconazole [4, 16]: 91%
- decrease of AUC∞ by ketoconazole [4, 16]: 88%
- decrease of Cmax by ketoconazole [4, 16]: 95%
- Cmax ([4]; plasma, SAXA + KETO, saxagliptin 100 mg + ketoconazole 200 mg every 12 hours (day 9), geometric mean (CV%), n = 15): 53 (49) ng/mL
- Cmax ([4]; plasma, SAXA, saxagliptin 100 mg administered alone (day 1), geometric mean (CV%), n = 15): 999 (24) ng/mL
- AUC0-t [4, 19]: 473 (59) ng · h/mL
- AUC∞ [4, 19]: 627 (43) ng · h/mL
- t½ ([4]; saxagliptin 100 mg + ketoconazole 200 mg every 12 hours (day 9)): 6.33 (2.49) h
- Tmax ([4]; saxagliptin 100 mg + ketoconazole 200 mg every 12 hours (day 9), median (minimum, maximum)): 2.00 (0.75, 4.00) h
- AUC0-t [4, 20]: 5294 (19) ng · h/mL
- AUC∞ [4, 20]: 5381 (19) ng · h/mL
- t½ ([4]; saxagliptin 100 mg administered alone (day 1)): 3.68 (0.53) h
- Tmax ([4]; saxagliptin 100 mg administered alone (day 1), median (minimum, maximum)): 1.50 (1.00, 2.00) h
- inhibition of CYP2D6 (CYP2D6): neither saxagliptin nor 5-hydroxy saxagliptin inhibits
- Cmax ([6]; plasma, SAXA + SIMVA, saxagliptin 10 mg + simvastatin 40 mg (day 12), geometric mean (CV%), n = 23): 103 (29) ng/mL
- Cmax ([6]; plasma, SAXA, saxagliptin 10 mg administered alone (day 4), geometric mean (CV%), n = 23): 96 (33) ng/mL
- AUCτ ([6]; plasma, saxagliptin 10 mg + simvastatin 40 mg (day 12), geometric mean (CV%), n = 23): 538 (24) ng · h/mL
- AUCτ ([6]; plasma, saxagliptin 10 mg administered alone (day 4), geometric mean (CV%), n = 23): 529 (26) ng · h/mL
- Tmax ([6]; saxagliptin 10 mg + simvastatin 40 mg (day 12), median (minimum, maximum)): 1.50 (1.00, 2.00) h
- increase of AUCτ by simvastatin [6, 17]: 2%
- increase of Cmax by simvastatin [6, 17]: 8%
- Tmax ([6]; saxagliptin 10 mg administered alone (day 4), median (minimum, maximum)): 1.50 (1.00, 3.00) h
- inhibition of CYP2C9 (CYP2C9 [7]): neither saxagliptin nor 5-hydroxy saxagliptin inhibits
- decrease of AUC0-t by diltiazem extended-release [1, 18]: 36%
- decrease of AUC∞ by diltiazem extended-release [1, 18]: 34%
- decrease of Cmax by diltiazem extended-release [1, 18]: 43%
- Cmax ([1]; plasma, SAXA + DILT XR, saxagliptin 10 mg + diltiazem extended-release 360 mg (day 10), geometric mean (CV%), n = 12): 63 (26) ng/mL
- Cmax ([1]; plasma, SAXA, saxagliptin 10 mg administered alone (day 1), geometric mean (CV%), n = 12): 111 (20) ng/mL
- AUC0-t [1, 21]: 338 (24) ng · h/mL
- AUC∞ [1, 21]: 353 (23) ng · h/mL
- t½ ([1]; saxagliptin 10 mg + diltiazem extended-release 360 mg (day 10)): 3.30 (0.53) h
- Tmax ([1]; saxagliptin 10 mg + diltiazem extended-release 360 mg (day 10), median (minimum, maximum)): 1.50 (1.00, 2.50) h
- AUC0-t [1, 22]: 526 (25) ng · h/mL
- AUC∞ [1, 22]: 538 (25) ng · h/mL
- t½ ([1]; saxagliptin 10 mg administered alone (day 1)): 3.04 (0.38) h
- Tmax ([1]; saxagliptin 10 mg administered alone (day 1), median (minimum, maximum)): 1.50 (1.00, 2.00) h
- inhibition of CYP2C19 (CYP2C19): neither saxagliptin nor 5-hydroxy saxagliptin inhibits
- induction of CYP1A2 (CYP1A2 [13]): do not induce
- induction of CYP2B6 (CYP2B6 [14]): do not induce
- DPP-4 inhibitive potency relative to the parent saxagliptin (DPP-4): one-half
- inhibition of CYP2A6 (CYP2A6): neither saxagliptin nor 5-hydroxy saxagliptin inhibits
- induction of CYP3A4 (CYP3A4 [8]): do not induce
- inhibition of CYP1A2 (CYP1A2 [15]): neither saxagliptin nor 5-hydroxy saxagliptin inhibits
- inhibition of CYP3A4 (CYP3A4 [9]): neither saxagliptin nor 5-hydroxy saxagliptin inhibits
- renal clearance [10]: ~120 mL/min

SMILES: CC(=O)N1CCN(c2ccc(OCC3COC(Cn4ccnc4)(c4ccc(Cl)cc4Cl)O3)cc2)CC1 (stereo not drawn) [Ketoconazole, ketoconazole]
- AUC ([4]; human, plasma, 200 mg): 42300 ng·h/mL
- Cmax ([4]; human, plasma, 200 mg): 7040 ng/mL
- Tmax ([4]; human, plasma, 200 mg): 2 h
- decrease of AUCτ by saxagliptin [4, 23]: 13%
- decrease of Cmax by saxagliptin [4, 23]: 16%
- headache, subjects ([5]; ketoconazole alone treatment group, 10/16): 62.5%
- subjects discontinued due to adverse event of increased transaminases ([5]; mild, beginning on day 8, lasting 11 days, following ketoconazole alone): One subject

SMILES: CCC(C)(C)C(=O)O[C@H]1C[C@@H](C)C=C2C=C[C@H](C)[C@H](CC[C@@H](O)C[C@@H](O)CC(=O)O)[C@H]21 [Simvastatin acid, simvastatin acid]
- AUC ([6]; human, in vivo, 40 mg): 17.9 ng·h/mL
- decrease of Cmax by saxagliptin [6]: unchanged
- increase of AUCτ by saxagliptin [6]: 16%
- Tmax ([6]; simvastatin 40 mg administered alone (day 8), median (minimum, maximum)): 4.00 (2.00, 8.00) h
